Data set [1] concerns the target HTLV-III reverse transcriptase (Human immunodeficiency virus type 1 group M subtype B, UniProt P03366). The experiment in a line: Purified HTLV-III reverse transcriptase assay. The data set is classed as biochemical. As to the method: Source of HTLV-III Reverse Transcriptase and Assay Conditions. HTLV-III reverse transcriptase used in these studies was purified by sequential chromatography on DEAE, cellulose, phosphocellulose and hydroxyapatite. The purified anzyme was stored in 50 mM Tris-HC1 (pH 7.5), 1 mM dithiothreitol (DTT), 0.01% Triton X-100 and 20% glycerol. Reverse transcriptase assays were carried out in a reaction mixture (50 μl)containing 50 mM Tris-HC1 (pH 7.5), 5 mM DTT, 100mM potassium chloride, 0.01% Triton X-100 or NP40, 10 μg/ml (dT)15.(A)n as template primer and/^3H/deoxythymidine triphosphate (/^3H/-dTTP). The reaction mixture was incubated for 1 hour at 37°, and the reaction was stopped by the addition of 50 μg of yeast tRNA and 2 ml of 10% solution of trichloroacetic acid (TCA) containing 1 mM sodium pyrophosphate. The samples were filtered on millipore filters (0.45 μm), washed first with 5% TCA solution (5 times) and then with 2 ml of 70% ethanol. The filters were dried under a heat lamp, scintillation fluid was added and the radioactivity counted in a β-scintillation counter.
The effect of foscarnet on purified HTLV-III reverse transcriptase (RT) was assayed as a function of drug concentration.

Data set [2] can be described thus: Steady-state serum level in patients on constant intravenous infusion. To be noted: constant intravenous infusion for 1-4 weeks, most cases.
Procedure: These patients were given foscarnet intravenously by constant infusion for 1-4 weeks and, at steady state, serum levels of foscarnet reached in most cases were 300-450 μM (100-150 μg/ml).
A further data set deals with Uninfected H9 cells. The experiment in a line: Growth inhibition of uninfected H9 cells. To be noted: Homo sapiens, 750 μM foscarnet. Type of data set: cell-based.
In the next data set the test system is HTLV-III. Description: Replication of HTLV-III in H9 cells (RT activity readout). Type of data set: cell-based. To be noted: Human immunodeficiency virus 1, 144 h. The method, then: HTLV-III Infection of H9 Cells. H9 cells constitute a human cell line that can be chronically infected with HTLV-III virus. (Science 1984; 224: 497-500). H9 cells were treated with polybrene (2 μg/ml) for 30 min. at 37° C., washed free of polybrene and infected with 2×10^8 HTLV-III virus particles per 4×10^5 H9 cells. […] The cultures were analyzed for HTLV-III reverse transcriptase activity as described above.
The effect of foscarnet on the replication of HTLV-III in H9 cells was determined as a function of both foscarnet concentration and time of incubation.

The test system of data set [3] is labial and genital herpes. The experiment in a line: Clinical evaluation of topical formulation against labial and genital herpes. The data set is classed as in vivo.
The subject of a further data set is cytomegalovirus (CMV). The experiment in a line: Clinical effect of infusion in patients with severe herpesvirus infections. The data set is classed as in vivo. The following applies: intravenous constant infusion 1-4 weeks, severe herpesvirus infections mainly CMV.
The subject of a further data set is variety of cell types. The experiment in a line: Cell growth inhibition in a variety of cell types. Type of data set: cell-based.

pIC50: −log10 of the molar value. Values joined by “and” are separate entries in the source; they are usually repeats but may differ in a detail not shown here. Identical values can stand only once.

One may read the inhibition as the percentage by which the read-out fell short of the control.

As for `O=C(O)P(=O)(O)O` [foscarnet, trisodium phosphonoformate hexahydrate], the pIC50 is 5.70 to 7.00 in data set [1] and roughly 3.00 with variety of cell types (variety of cell types, read-out: concentration inhibiting cell growth by 50%). Also, the “mode of inhibition of reverse transcriptase” value in data set [1] (with respect to substrate and template) was “noncompetitive with respect to substrate and uncompetitive with respect to template”. In addition, the “steady state serum level” value in data set [2] is 300-450 μM and 100-150 μg/ml. The same molecule returned an inhibition at 750 µM in the data set on Uninfected H9 cells of less than 50%. In the data set with HTLV-III (50 μM foscarnet, 6 days of incubation), this molecule returned an inhibition at 50 µM of 50%. The same molecule gave an inhibition at 300 µM in the data set on HTLV-III (300 μM foscarnet, six days of incubation) greater than 95%. For the same molecule, the “clinical activity and tolerability” value in data set [3] is “active and well tolerated”. Also, the “clinical effect in treated patients” value in the data set on cytomegalovirus (CMV) is listed as “clear indications of a beneficial effect”. Further, the “cell growth after removal of the drug” value in the data set on variety of cell types (stationary cells treated with 10 mM foscarnet) was “normal cell growth can be seen”. In the data set with variety of cell types (variety of cell types), the “reversibility of cell growth inhibition” value is “reversible”.

The record behind these values is US6476009B1, “Method for control and treatment of acquired immunodeficiency syndrome (AIDS)” (priority 1985, dated 2002).
